Assay results taken from patent US20200370087A1, “METHOD FOR DETERMINING MICROBIAL SUSCEPTIBILITY TO ANTIBIOTIC AGENTS” (Ascilion AB, priority 2017, published 2020).

How the values were obtained:
[1] = system: Staphylococcus aureus ATCC 29213; conditions: S.aureus, cited from earlier work
[2] = system: Enterococcus faecalis (ATCC 29212); experiment: Glucose consumption susceptibility test, blood culture diluted in MHB with glucose (Example 1); format: cell-based; design: glucose concentration, t = 0 / glucose concentration, t = 60 / glucose concentration, t = 120 / glucose concentration, t = 180 / glucose concentration, t = 240 / dC/dT (rate of change in glucose concentration): unit not given here; conditions: for F = the rate of change in glucose concentration in relation to the reference / dC/dT (rate of change in glucose concentration) / glucose concentration, t = 0 / glucose concentration, t = 60 / glucose concentration, t = 120 / glucose concentration, t = 180 / glucose concentration, t = 240: E. faecalis; for glucose concentration, t = 0: 0 minutes; for glucose concentration, t = 60: 60 minutes; for glucose concentration, t = 120: 120 minutes; for glucose concentration, t = 180: 180 minutes; for glucose concentration, t = 240: 240 minutes
Description: (§1) Strains of Escherichia coli (ATCC 25922), Enterococcus faecalis (ATCC 29212) and Staphylococcus aureus (ATCC 29213) were inoculated in blood culture bottles (SVA, Uppsala, Sweden) and cultivated according to the manufacturer's instructions until positive.
(§2) Medium from each blood culture bottle was diluted 1:100 with cation adjusted Mueller-Hinton broth (SVA, Uppsala, Sweden) supplemented with glucose to a concentration of 1.0 mg/mL.
(§3) Glucose concentrations were measured at 0, 60, 120, 180, and 240 minutes using a WaveSense Jazz glucometer (AgaMatrix, Inc., Salem, N.H., USA) with accompanying test strips.
(§4) Susceptibility scores corresponding to MIC values were calculated as described above. A 80% threshold was applied, i.e. the lowest concentration of antibiotic that entailed a rate of change in glucose concentration that was equal to or less than 80% of the reference was selected as the Minimal Inhibitory Concentration. The rate of change was calculated between the measurements at 60 and 180 minutes.

[3] = system: Staphylococcus aureus (ATCC 29213); experiment: as above; format: cell-based; design: glucose concentration, t = 0 / glucose concentration, t = 60 / glucose concentration, t = 120 / glucose concentration, t = 180 / glucose concentration, t = 240 / dC/dT (rate of change in glucose concentration): unit not given here; conditions: for F = the rate of change in glucose concentration in relation to the reference / dC/dT (rate of change in glucose concentration) / glucose concentration, t = 0 / glucose concentration, t = 60 / glucose concentration, t = 120 / glucose concentration, t = 180 / glucose concentration, t = 240: S. aureus; for glucose concentration, t = 0: 0 minutes; for glucose concentration, t = 60: 60 minutes; for glucose concentration, t = 120: 120 minutes; for glucose concentration, t = 180: 180 minutes; for glucose concentration, t = 240: 240 minutes
Description: as §1, §2, §3, §4

Substance: gentamicin
- MIC, EUCAST, range in parentheses ([1]; range obtained by EUCAST from ISO 20776-1: 2006): (0.125-1) ug/mL
- MIC, EUCAST ([1]; reference value, Mueller-Hinton agar, incubation 18±2 h): 0.25 to 0.5 µg/mL
- F = the rate of change in glucose concentration in relation to the reference ([2]; antibiotic 0.25 μg/mL): 144%
- dC/dT (rate of change in glucose concentration) ([2]; antibiotic 0.25 μg/mL): 52
- glucose concentration, t = 0 ([2]; antibiotic 0.25 μg/mL): 142
- glucose concentration, t = 60 ([2]; antibiotic 0.25 μg/mL): 156
- glucose concentration, t = 120 ([2]; antibiotic 0.25 μg/mL): 143
- glucose concentration, t = 180 ([2]; antibiotic 0.25 μg/mL): 87
- F = the rate of change in glucose concentration in relation to the reference ([2]; antibiotic 0.5 μg/mL): 148%
- dC/dT (rate of change in glucose concentration) ([2]; antibiotic 0.5 μg/mL): 53
- glucose concentration, t = 0 ([2]; antibiotic 0.5 μg/mL): 146
- glucose concentration, t = 60 ([2]; antibiotic 0.5 μg/mL): 160
- glucose concentration, t = 120 ([2]; antibiotic 0.5 μg/mL): 138
- glucose concentration, t = 180 ([2]; antibiotic 0.5 μg/mL): 97
- F = the rate of change in glucose concentration in relation to the reference ([2]; antibiotic 1 μg/mL): 106%
- dC/dT (rate of change in glucose concentration) ([2]; antibiotic 1 μg/mL): 38
- glucose concentration, t = 0 ([2]; antibiotic 1 μg/mL): 145
- glucose concentration, t = 60 ([2]; antibiotic 1 μg/mL): 150
- glucose concentration, t = 120 ([2]; antibiotic 1 μg/mL): 138
- glucose concentration, t = 180 ([2]; antibiotic 1 μg/mL): 100
- glucose concentration, t = 240 ([2]; antibiotic 1 μg/mL): 36
- F = the rate of change in glucose concentration in relation to the reference ([2]; antibiotic 2 μg/mL): 75%
- dC/dT (rate of change in glucose concentration) ([2]; antibiotic 2 μg/mL): 27
- glucose concentration, t = 0 ([2]; antibiotic 2 μg/mL): 147
- glucose concentration, t = 60 ([2]; antibiotic 2 μg/mL): 156
- glucose concentration, t = 120 ([2]; antibiotic 2 μg/mL): 143
- glucose concentration, t = 180 ([2]; antibiotic 2 μg/mL): 110
- glucose concentration, t = 240 ([2]; antibiotic 2 μg/mL): 75
- F = the rate of change in glucose concentration in relation to the reference ([2]; antibiotic 4 μg/mL): 46%
- dC/dT (rate of change in glucose concentration) ([2]; antibiotic 4 μg/mL): 17
- glucose concentration, t = 0 ([2]; antibiotic 4 μg/mL): 147
- glucose concentration, t = 60 ([2]; antibiotic 4 μg/mL): 154
- glucose concentration, t = 120 ([2]; antibiotic 4 μg/mL): 151
- glucose concentration, t = 180 ([2]; antibiotic 4 μg/mL): 118
- glucose concentration, t = 240 ([2]; antibiotic 4 μg/mL): 104
- F = the rate of change in glucose concentration in relation to the reference ([2]; antibiotic 8 μg/mL): 14%
- dC/dT (rate of change in glucose concentration) ([2]; antibiotic 8 μg/mL): 5
- glucose concentration, t = 0 ([2]; antibiotic 8 μg/mL): 143
- glucose concentration, t = 60 ([2]; antibiotic 8 μg/mL): 155
- glucose concentration, t = 120 ([2]; antibiotic 8 μg/mL): 134
- glucose concentration, t = 180 ([2]; antibiotic 8 μg/mL): 136
- glucose concentration, t = 240 ([2]; antibiotic 8 μg/mL): 140
- F = the rate of change in glucose concentration in relation to the reference ([2]; antibiotic 16 μg/mL): 18%
- dC/dT (rate of change in glucose concentration) ([2]; antibiotic 16 μg/mL): 6
- glucose concentration, t = 0 ([2]; antibiotic 16 μg/mL): 147
- glucose concentration, t = 60 ([2]; antibiotic 16 μg/mL): 160
- glucose concentration, t = 120 ([2]; antibiotic 16 μg/mL): 152
- glucose concentration, t = 180 ([2]; antibiotic 16 μg/mL): 155
- F = the rate of change in glucose concentration in relation to the reference ([2]; antibiotic 32 μg/mL): 3%
- dC/dT (rate of change in glucose concentration) ([2]; antibiotic 32 μg/mL): 1
- glucose concentration, t = 0 ([2]; antibiotic 32 μg/mL): 143
- glucose concentration, t = 60 ([2]; antibiotic 32 μg/mL): 151
- glucose concentration, t = 180 ([2]; antibiotic 32 μg/mL): 142
- glucose concentration, t = 240 ([2]; antibiotic 32 μg/mL): 148
- MIC, Measured ([2]; E.faecalis, 80% threshold of reference rate of change, 60 to 180 minutes, N/A = not susceptible, no MIC value can be calculated): 2 µg/mL
- F = the rate of change in glucose concentration in relation to the reference ([3]; antibiotic 0.25 μg/mL): 66%
- dC/dT (rate of change in glucose concentration) ([3]; antibiotic 0.25 μg/mL): 22
- glucose concentration, t = 0 ([3]; antibiotic 0.25 μg/mL): 143
- glucose concentration, t = 60 ([3]; antibiotic 0.25 μg/mL): 146
- glucose concentration, t = 120 ([3]; antibiotic 0.25 μg/mL): 140
- glucose concentration, t = 180 ([3]; antibiotic 0.25 μg/mL): 102
- glucose concentration, t = 240 ([3]; antibiotic 0.25 μg/mL): 55
- F = the rate of change in glucose concentration in relation to the reference ([3]; antibiotic 0.5 μg/mL): 57%
- dC/dT (rate of change in glucose concentration) ([3]; antibiotic 0.5 μg/mL): 19
- glucose concentration, t = 0 ([3]; antibiotic 0.5 μg/mL): 143
- glucose concentration, t = 60 ([3]; antibiotic 0.5 μg/mL): 154
- glucose concentration, t = 120 ([3]; antibiotic 0.5 μg/mL): 137
- glucose concentration, t = 180 ([3]; antibiotic 0.5 μg/mL): 116
- glucose concentration, t = 240 ([3]; antibiotic 0.5 μg/mL): 78
- F = the rate of change in glucose concentration in relation to the reference ([3]; antibiotic 1 μg/mL): 30%
- dC/dT (rate of change in glucose concentration) ([3]; antibiotic 1 μg/mL): 10
- glucose concentration, t = 0 ([3]; antibiotic 1 μg/mL): 137
- glucose concentration, t = 60 ([3]; antibiotic 1 μg/mL): 154
- glucose concentration, t = 120 ([3]; antibiotic 1 μg/mL): 146
- glucose concentration, t = 180 ([3]; antibiotic 1 μg/mL): 134
- glucose concentration, t = 240 ([3]; antibiotic 1 μg/mL): 119
- F = the rate of change in glucose concentration in relation to the reference ([3]; antibiotic 2 μg/mL): 12%
- dC/dT (rate of change in glucose concentration) ([3]; antibiotic 2 μg/mL): 4
- glucose concentration, t = 0 ([3]; antibiotic 2 μg/mL): 144
- glucose concentration, t = 60 ([3]; antibiotic 2 μg/mL): 154
- glucose concentration, t = 180 ([3]; antibiotic 2 μg/mL): 146
- glucose concentration, t = 240 ([3]; antibiotic 2 μg/mL): 148
- F = the rate of change in glucose concentration in relation to the reference ([3]; antibiotic 4 μg/mL): 10%
- dC/dT (rate of change in glucose concentration) ([3]; antibiotic 4 μg/mL): 4
- glucose concentration, t = 60 ([3]; antibiotic 4 μg/mL): 157
- glucose concentration, t = 120 ([3]; antibiotic 4 μg/mL): 147
- glucose concentration, t = 180 ([3]; antibiotic 4 μg/mL): 150
- glucose concentration, t = 240 ([3]; antibiotic 4 μg/mL): 149
- F = the rate of change in glucose concentration in relation to the reference ([3]; antibiotic 8 μg/mL): 0%
- dC/dT (rate of change in glucose concentration) ([3]; antibiotic 8 μg/mL): 0
- glucose concentration, t = 0 ([3]; antibiotic 8 μg/mL): 142
- glucose concentration, t = 60 ([3]; antibiotic 8 μg/mL): 154
- glucose concentration, t = 120 ([3]; antibiotic 8 μg/mL): 150
- glucose concentration, t = 180 ([3]; antibiotic 8 μg/mL): 154
- glucose concentration, t = 240 ([3]; antibiotic 8 μg/mL): 140
- F = the rate of change in glucose concentration in relation to the reference ([3]; antibiotic 16 μg/mL): 0%
- dC/dT (rate of change in glucose concentration) ([3]; antibiotic 16 μg/mL): 0
- glucose concentration, t = 0 ([3]; antibiotic 16 μg/mL): 139
- glucose concentration, t = 60 ([3]; antibiotic 16 μg/mL): 145
- glucose concentration, t = 120 ([3]; antibiotic 16 μg/mL): 150
- glucose concentration, t = 180 ([3]; antibiotic 16 μg/mL): 145
- glucose concentration, t = 240 ([3]; antibiotic 16 μg/mL): 145
- F = the rate of change in glucose concentration in relation to the reference ([3]; antibiotic 32 μg/mL): 3%
- dC/dT (rate of change in glucose concentration) ([3]; antibiotic 32 μg/mL): 1
- glucose concentration, t = 0 ([3]; antibiotic 32 μg/mL): 144
- glucose concentration, t = 60 ([3]; antibiotic 32 μg/mL): 148
- glucose concentration, t = 120 ([3]; antibiotic 32 μg/mL): 145
- glucose concentration, t = 180 ([3]; antibiotic 32 μg/mL): 146
- glucose concentration, t = 240 ([3]; antibiotic 32 μg/mL): 145
- MIC, Measured ([3]; S.aureus, 80% threshold of reference rate of change, 60 to 180 minutes): 0.25 µg/mL
